Source: ChEMBL document CHEMBL5705887, “Distinct concentration-dependent effects of the polo-like kinase 1-specific inhibitor GSK461364A, including differential effect on apoptosis” (Cancer Res, 2009)
Calls of active or inactive are those of the source. The rule behind the calls is not given here.

What was measured:
THP-1 = assay: Antiproliferative activity against human THP-1 cells assessed as of viable cell signal at minimum maximum cell growth incubated for 72 hrs by celltiter-glo assay relative to control; format: functional
COLO 205 [1] = assay: Antitumor activity against human COLO 205 cells xenografted in Nude mouse assessed as tumor growth delay time at 100 mg/kg, ip administered every 2 to 4 days; format: functional; conditions: time 2-4 day
NCI-N87 = assay: Antiproliferative activity against human NCI-N87 cells assessed as growth inhibition incubated for 72 hrs by celltiter-glo assay; format: functional
MIA PaCa-2 = assay: Antiproliferative activity against human MIA PaCa-2 cells assessed as growth inhibition incubated for 72 hrs by celltiter-glo assay; format: functional
SJSA-1 = assay: Antiproliferative activity against human SJSA-1 cells assessed as viable cell signal at maximum growth inhibition incubated for 72 hrs by celltiter-glo assay relative to control; format: functional
HCC1937 = assay: Antiproliferative activity against human HCC1937 cells assessed as growth inhibition incubated for 72 hrs by celltiter-glo assay; format: functional
SK-MEL3 = assay: Antiproliferative activity against human SK-MEL3 cells assessed as viable cell signal at maximum growth inhibition incubated for 72 hrs by celltiter-glo assay relative to control; format: functional
SK-BR-3 = assay: Antiproliferative activity against human SK-BR-3 cells assessed as of viable cell signal at minimum maximum cell growth incubated for 72 hrs by celltiter-glo assay relative to control; format: functional
[2] = biological target: Serine/threonine-protein kinase D1 (Homo sapiens) (UniProt Q15139); assay: Inhibition of recombinant human PKC-mu at 10 uM relative to control
NCI-H157 = assay: Antiproliferative activity against human NCI-H157 cells assessed as growth inhibition incubated for 72 hrs by celltiter-glo assay; format: functional
PANC-1 = assay: Antiproliferative activity against human PANC-1 cells assessed as growth inhibition incubated for 72 hrs by celltiter-glo assay; format: functional
U-87 MG = assay: Antiproliferative activity against human U-87 MG cells assessed as viable cell signal at maximum growth inhibition incubated for 72 hrs by celltiter-glo assay relative to control; format: functional, U-87MG ATCC
DU-145 [3] = assay: Antiproliferative activity against human DU-145 cells assessed as growth inhibition incubated for 72 hrs by celltiter-glo assay; format: functional
COLO 205 [4] = assay: Antitumor activity against human COLO 205 cells xenografted in Nude mouse assessed as tumor regression at 50 mg/kg, ip administered one dose every 2 day repeated for 12 days; format: functional, organism-based; conditions: time 12.0 day
LoVo = assay: Antiproliferative activity against human LoVo cells assessed as growth inhibition incubated for 72 hrs by celltiter-glo assay; format: functional
A704 [5] = assay: Antiproliferative activity against human A704 cells assessed as of viable cell signal at minimum maximum cell growth incubated for 72 hrs by celltiter-glo assay relative to control; format: functional
NCI-H322M = assay: Antiproliferative activity against human NCI-H322M cells assessed as viable cell signal at maximum growth inhibition incubated for 72 hrs by celltiter-glo assay relative to control; format: functional
MX1 [6] = assay: Antiproliferative activity against human MX1 cells assessed as growth inhibition incubated for 72 hrs by celltiter-glo assay; format: functional
A704 [7] = assay: Antiproliferative activity against human A704 cells assessed as growth inhibition incubated for 72 hrs by celltiter-glo assay; format: functional
OVCAR-3 = assay: Antiproliferative activity against human OVCAR-3 cells assessed as viable cell signal at maximum growth inhibition incubated for 72 hrs by celltiter-glo assay relative to control; format: functional
MDA-MB-468 = assay: Induction of mitotic arrest in human MDA-MB-468 cells assessed as effect on pHH3 level at 10 to 250 nmol/L incubated for 19 hrs by ELISA analysis; format: functional, cell-based; conditions: dose 10-250 nmol/L
DLD-1 = assay: Antiproliferative activity against human DLD-1 cells assessed as growth inhibition incubated for 72 hrs by celltiter-glo assay; format: functional
T-24 [8] = assay: Antiproliferative activity against human T24 cells assessed as viable cell signal at maximum growth inhibition incubated for 72 hrs by celltiter-glo assay relative to control; format: functional
[9] = Antiproliferative activity against human A375P cells assessed as growth inhibition incubated for 72 hrs by celltiter-glo assay; format: functional
[10] = Antiproliferative activity against human PL45 cells assessed as growth inhibition incubated for 72 hrs by celltiter-glo assay; format: functional
HT-1080 = assay: Antiproliferative activity against human HT-1080 cells assessed as of viable cell signal at minimum maximum cell growth incubated for 72 hrs by celltiter-glo assay relative to control; format: functional
MDA-MB-453 = assay: Antiproliferative activity against human MDA-MB-453 cells assessed as of viable cell signal at minimum maximum cell growth incubated for 72 hrs by celltiter-glo assay relative to control; format: functional
NCI-H522 = assay: Antiproliferative activity against human NCI-H522 cells assessed as growth inhibition incubated for 72 hrs by celltiter-glo assay; format: functional
T-24 [11] = assay: Antiproliferative activity against human T24 cells assessed as of viable cell signal at minimum maximum cell growth incubated for 72 hrs by celltiter-glo assay relative to control; format: functional
[12] = Antiproliferative activity against human PL45 cells assessed as viable cell signal at maximum growth inhibition incubated for 72 hrs by celltiter-glo assay relative to control; format: functional
COLO 205 [13] = assay: Antitumor activity against human COLO 205 cells xenografted in Nude mouse assessed as increase in pIk1 level at 50 to 100 mg/kg, ip administered one dose every 2 day repeated for 12 days by immunohistochemistry analysis; format: functional, organism-based; conditions: dose 50-100 mg/kg, time 12.0 day
[14] = Antiproliferative activity against human A375P cells assessed as of viable cell signal at minimum maximum cell growth incubated for 72 hrs by celltiter-glo assay relative to control; format: functional
[15] = biological target: Cytoplasmic tyrosine-protein kinase BMX (Homo sapiens) (UniProt P51813); assay: Inhibition of N-terminal his6-tagged recombinant human BMX expressed in baculovirus Sf21 insect cells at 10 uM relative to control
DU-145 [16] = assay: Antiproliferative activity against human DU-145 cells assessed as of viable cell signal at minimum maximum cell growth incubated for 72 hrs by celltiter-glo assay relative to control; format: functional
Calu-3 = assay: Antiproliferative activity against human Calu-3 cells assessed as of viable cell signal at minimum maximum cell growth incubated for 72 hrs by celltiter-glo assay relative to control; format: functional
Hep 3B2 = assay: Antiproliferative activity against human Hep3B cells assessed as growth inhibition incubated for 72 hrs by celltiter-glo assay; format: functional
MX1 [17] = assay: Antiproliferative activity against human MX1 cells assessed as viable cell signal at maximum growth inhibition incubated for 72 hrs by celltiter-glo assay relative to control; format: functional
A549 = assay: Induction of mitotic arrest in human A549 cells assessed as disordered spindle formation at 20 nmol/L incubated for 16 hrs by alpha-tubulin/DAPI staining based confocal microscopic analysis; format: functional, cell-based
Jurkat = assay: Antiproliferative activity against human Jurkat cells assessed as of viable cell signal at minimum maximum cell growth incubated for 72 hrs by celltiter-glo assay relative to control; format: functional
ZR-75-1 = assay: Growth inhibition of human ZR-75-1 cells assessed as caspase-3/caspase-7 activation at 0.1 nmol/L incubated for 5 to 7 days by […]; format: functional, cell-based; conditions: time 5-7 day
OVCAR-4 = assay: Antiproliferative activity against human OVCAR-4 cells assessed as viable cell signal at maximum growth inhibition incubated for 72 hrs by celltiter-glo assay relative to control; format: functional

Sequence of Serine/threonine-protein kinase D1 (Homo sapiens) (Q15139 whole entry): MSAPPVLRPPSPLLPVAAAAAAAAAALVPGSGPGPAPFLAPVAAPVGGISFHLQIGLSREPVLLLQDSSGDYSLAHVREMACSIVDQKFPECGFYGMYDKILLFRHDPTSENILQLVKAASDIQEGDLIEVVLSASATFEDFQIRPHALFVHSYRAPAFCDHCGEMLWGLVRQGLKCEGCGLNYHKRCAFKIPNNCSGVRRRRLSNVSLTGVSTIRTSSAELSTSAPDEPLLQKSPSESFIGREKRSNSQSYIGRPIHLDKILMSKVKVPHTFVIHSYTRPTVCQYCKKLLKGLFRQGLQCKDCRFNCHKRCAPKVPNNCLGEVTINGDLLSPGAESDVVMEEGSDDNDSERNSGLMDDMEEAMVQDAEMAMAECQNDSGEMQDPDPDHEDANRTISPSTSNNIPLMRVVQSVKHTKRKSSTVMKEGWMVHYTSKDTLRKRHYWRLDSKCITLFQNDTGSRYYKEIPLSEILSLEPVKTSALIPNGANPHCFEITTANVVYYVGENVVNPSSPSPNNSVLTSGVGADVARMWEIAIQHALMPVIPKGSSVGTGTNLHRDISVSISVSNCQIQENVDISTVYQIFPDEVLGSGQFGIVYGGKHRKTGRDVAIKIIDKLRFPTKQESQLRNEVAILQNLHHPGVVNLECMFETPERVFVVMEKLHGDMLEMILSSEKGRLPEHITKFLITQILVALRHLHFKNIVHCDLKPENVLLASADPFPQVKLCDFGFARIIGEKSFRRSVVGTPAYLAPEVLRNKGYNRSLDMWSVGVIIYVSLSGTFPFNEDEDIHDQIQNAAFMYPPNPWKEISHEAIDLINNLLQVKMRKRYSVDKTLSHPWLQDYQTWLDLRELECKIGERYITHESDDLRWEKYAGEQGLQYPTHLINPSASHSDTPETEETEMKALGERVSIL
Sequence of Cytoplasmic tyrosine-protein kinase BMX (Homo sapiens) (P51813 whole entry): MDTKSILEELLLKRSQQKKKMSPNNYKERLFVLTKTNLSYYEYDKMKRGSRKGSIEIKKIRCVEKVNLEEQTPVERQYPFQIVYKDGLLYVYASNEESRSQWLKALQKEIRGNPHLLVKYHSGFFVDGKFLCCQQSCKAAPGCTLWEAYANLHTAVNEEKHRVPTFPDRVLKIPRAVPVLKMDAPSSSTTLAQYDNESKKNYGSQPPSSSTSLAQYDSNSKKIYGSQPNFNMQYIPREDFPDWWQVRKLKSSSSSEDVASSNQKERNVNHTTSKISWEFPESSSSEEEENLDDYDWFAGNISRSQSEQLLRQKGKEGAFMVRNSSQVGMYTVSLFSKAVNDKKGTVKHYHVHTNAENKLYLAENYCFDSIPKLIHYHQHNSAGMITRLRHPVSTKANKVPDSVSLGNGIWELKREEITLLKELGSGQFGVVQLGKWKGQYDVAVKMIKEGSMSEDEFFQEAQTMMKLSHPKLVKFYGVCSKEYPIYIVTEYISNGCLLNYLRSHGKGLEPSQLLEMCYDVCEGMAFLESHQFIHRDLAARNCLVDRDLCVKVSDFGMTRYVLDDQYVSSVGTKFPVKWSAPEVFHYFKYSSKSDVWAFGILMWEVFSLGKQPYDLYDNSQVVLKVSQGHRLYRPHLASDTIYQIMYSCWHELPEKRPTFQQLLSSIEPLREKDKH

Compound `C[C@@H](Oc1cc(-n2cnc3ccc(CN4CCN(C)CC4)cc32)sc1C(N)=O)c1ccccc1C(F)(F)F` [GSK-461364] has an Emin (THP-1) of 60.3%, a Time (COLO 205 [1]) of 18 days and a GI50 (NCI-N87) of 21.5 nM. For the same compound, the GI50 (MIA PaCa-2) was 39.9 nM, the Emax (SJSA-1) was 791% and the GI50 (HCC1937) was 4790 nM. The Emax (SK-MEL3) was 708%, the Emin (SK-BR-3) was 54.6% and the inhibition [2] was 53%. The GI50 (NCI-H157) was 25.2 nM, the GI50 (PANC-1) was 44.9 nM and the Emax (U-87 MG) was 632%. For the same compound, the GI50 (DU-145 [3]) was 24.2 nM, the Activity (COLO 205 [4]) was “Active” and the GI50 (LoVo) was 12.2 nM. The Emin (A704 [5]) was 3.2%, the Emax (NCI-H322M) was 611% and the GI50 (MX1 [6]) was 12.1 nM. The GI50 (A704 [7]) was 183 nM, the Emax (OVCAR-3) was 496% and the Activity (MDA-MB-468) was “Active”. It also gave a GI50 (DLD-1) of 48.9 nM, an Emax (T-24 [8]) of 692% and a GI50 [9] of 23.6 nM. It also gave a GI50 [10] of 21.9 nM, an Emin (HT-1080) of 62.5% and an Emin (MDA-MB-453) of 179.6%. It also gave a GI50 (NCI-H522) of 16.9 nM, an Emin (T-24 [11]) of 109% and an Emax [12] of 267%. For the same compound, the Activity (COLO 205 [13]) was “Active”, the Emin [14] was 220.5% and the inhibition [15] was 57%. For the same compound, the Emin (DU-145 [16]) was 69.1%, the Emin (Calu-3) was 115.6% and the GI50 (Hep 3B2) was 35.8 nM. The Emax (MX1 [17]) was 498%, the Activity (A549) was “Active” and the Emin (Jurkat) was 2.2%. For the same compound, the Activity (ZR-75-1) was “Active” and the Emax (OVCAR-4) was 342%.
